From the NIST ThermoML archive (doi:10.1016/j.tca.2007.02.022)
Several values for one entry are separate records, joined by “and”; a condition that tells them apart may be missing. Equal entries are not always repeated. Numbers after ± are expanded uncertainties.

What was measured:
[1] = Crystal
[2] = molar heat capacity at constant pressure; settings: 101.33 kPa
[3] = Molar enthalpy of transition or fusion; settings: Crystal

OC[C@@H](O)[C@H](O)[C@@H](O)CO [xylitol]
Settings | Molar enthalpy of transition or fusion | Triple point temperature
[1] | – | 367.52 ± 5 K and 369.06 ± 0.5 K
[3] | 8.05 kcal/mol and 7.95 kcal/mol | –

[2]
Settings | molar heat capacity at constant pressure [J/K/mol]
80 K, Crystal | 63.67 ± 1.7
80.07 K, Crystal | 62.71 ± 1.6
83.61 K, Crystal | 65.01 ± 1.7
85 K, Crystal | 66.43 ± 1.7
86.53 K, Crystal | 67.25 ± 1.8
89.49 K, Crystal | 69.29 ± 1.8
90 K, Crystal | 69.62 ± 2.7
92.49 K, Crystal | 71.54 ± 2.7
95 K, Crystal | 73.13 ± 2.7
95.54 K, Crystal | 73.71 ± 2.7
98.51 K, Crystal | 75.94 ± 2.8
100 K, Crystal | 76.86 ± 2.8
101.4 K, Crystal | 78.2 ± 2.8
104.34 K, Crystal | 80.53 ± 2.8
105 K, Crystal | 80.73 ± 2.8
107.35 K, Crystal | 82.78 ± 2.8
110 K, Crystal | 84.68 ± 2.9
110.28 K, Crystal | 84.97 ± 2.9
113.27 K, Crystal | 87.33 ± 2.9
115 K, Crystal | 88.65 ± 2.9
116.32 K, Crystal | 89.39 ± 2.9
119.31 K, Crystal | 91.73 ± 2.9
120 K, Crystal | 92.61 ± 2.9
122.25 K, Crystal | 93.79 ± 2.9
125 K, Crystal | 96.54 ± 3
125.24 K, Crystal | 96.15 ± 3
128.3 K, Crystal | 98.38 ± 3
130 K, Crystal | 100.4 ± 3
131.31 K, Crystal | 100.5 ± 3
134.27 K, Crystal | 102.7 ± 3
135 K, Crystal | 104.2 ± 3
137.29 K, Crystal | 104.8 ± 3
140 K, Crystal | 108 ± 3.1
140.38 K, Crystal | 106.6 ± 3.1
143.41 K, Crystal | 109 ± 3.1
145 K, Crystal | 111.7 ± 3.1
146.39 K, Crystal | 111.2 ± 3.1
149.42 K, Crystal | 113.3 ± 3.1
150 K, Crystal | 115.3 ± 3.2
152.51 K, Crystal | 115.5 ± 3.2
155 K, Crystal | 118.9 ± 3.2
155.56 K, Crystal | 117.7 ± 3.2
158.57 K, Crystal | 119.8 ± 3.2
160 K, Crystal | 122.4 ± 3.2
161.56 K, Crystal | 121.9 ± 3.2
164.6 K, Crystal | 123.9 ± 3.2
165 K, Crystal | 126 ± 3.3
167.69 K, Crystal | 126 ± 3.3
170 K, Crystal | 129.5 ± 3.3
170.76 K, Crystal | 129.7 ± 3.3
173.84 K, Crystal | 132.3 ± 3.3
175 K, Crystal | 133 ± 3.3
176.88 K, Crystal | 134 ± 3.3
179.99 K, Crystal | 136 ± 3.4
180 K, Crystal | 136.6 ± 3.4
183.16 K, Crystal | 138 ± 3.4
185 K, Crystal | 140.1 ± 3.4
186.3 K, Crystal | 140.4 ± 3.4
190 K, Crystal | 143.7 ± 3.4
192.5 K, Crystal | 144.2 ± 3.4
195 K, Crystal | 147.3 ± 3.5
195.64 K, Crystal | 146.3 ± 3.5
198.85 K, Crystal | 148.5 ± 3.5
200 K, Crystal | 151 ± 3.5
202.03 K, Crystal | 150.3 ± 3.5
205 K, Crystal | 154.7 ± 3.5
205.18 K, Crystal | 152.4 ± 3.5
208.33 K, Crystal | 155.1 ± 3.6
210 K, Crystal | 158.4 ± 3.6
211.45 K, Crystal | 157.1 ± 3.6
214.63 K, Crystal | 159.5 ± 3.6
215 K, Crystal | 162.1 ± 3.6
217.88 K, Crystal | 161.4 ± 3.6
220 K, Crystal | 165.9 ± 3.7
221.1 K, Crystal | 163.8 ± 3.6
224.3 K, Crystal | 165.8 ± 3.7
225 K, Crystal | 169.6 ± 3.7
227.46 K, Crystal | 168.2 ± 3.7
230 K, Crystal | 173.4 ± 3.7
230.62 K, Crystal | 170.6 ± 3.7
233.78 K, Crystal | 172.5 ± 3.7
235 K, Crystal | 177.1 ± 3.8
236.94 K, Crystal | 174 ± 3.7
240 K, Crystal | 180.8 ± 3.8
240.13 K, Crystal | 176.1 ± 3.8
243.21 K, Crystal | 178.2 ± 3.8
245 K, Crystal | 184.4 ± 3.8
246.34 K, Crystal | 180.8 ± 3.8
249.48 K, Crystal | 182.2 ± 3.8
250 K, Crystal | 188 ± 3.9
252.61 K, Crystal | 184.3 ± 3.8
255 K, Crystal | 191.5 ± 3.9
255.78 K, Crystal | 186.3 ± 3.9
258.93 K, Crystal | 188.6 ± 3.9
260 K, Crystal | 195 ± 4
262.07 K, Crystal | 191 ± 3.9
265 K, Crystal | 198.3 ± 4
265.19 K, Crystal | 193.2 ± 3.9
268.29 K, Crystal | 195.2 ± 4
270 K, Crystal | 201.6 ± 4
271.44 K, Crystal | 197.5 ± 4
274.65 K, Crystal | 199.6 ± 4
275 K, Crystal | 204.8 ± 4
277.84 K, Crystal | 201.9 ± 4
280 K, Crystal | 208 ± 4.1
281.02 K, Crystal | 204.7 ± 4
284.19 K, Crystal | 207.3 ± 4.1
285 K, Crystal | 211.1 ± 4.1
287.39 K, Crystal | 210.2 ± 4.1
290 K, Crystal | 214.2 ± 4.1
290.63 K, Crystal | 212.7 ± 4.1
293.83 K, Crystal | 215.1 ± 4.2
295 K, Crystal | 217.4 ± 4.2
297.06 K, Crystal | 217.8 ± 4.2
298.15 K, Crystal | 219.4 ± 4.2
300 K, Crystal | 220.7 ± 4.2
300.4 K, Crystal | 220.6 ± 4.2
303.7 K, Crystal | 223.9 ± 4.2
305 K, Crystal | 224.2 ± 4.2
310 K, Crystal | 227.9 ± 4.3
310.42 K, Crystal | 229.1 ± 4.3
314.19 K, Crystal | 232.7 ± 4.3
315 K, Crystal | 232.1 ± 4.3
318.33 K, Crystal | 237.1 ± 4.4
320 K, Crystal | 236.9 ± 4.4
322.65 K, Crystal | 240.3 ± 4.4
325 K, Crystal | 242.4 ± 4.4
326.89 K, Crystal | 244.7 ± 4.4
330 K, Crystal | 248.8 ± 4.5
331.21 K, Crystal | 251.3 ± 4.5
335 K, Crystal | 256.3 ± 4.6
335.57 K, Crystal | 258.1 ± 4.6
339.95 K, Crystal | 261.8 ± 4.6
340 K, Crystal | 265.3 ± 4.7
344.29 K, Crystal | 261.9 ± 4.6
345 K, Crystal | 275.9 ± 4.8
348.52 K, Crystal | 262.4 ± 4.6
350 K, Crystal | 288.6 ± 4.9
352.73 K, Crystal | 271.3 ± 4.7
355 K, Crystal | 303.6 ± 5
356.88 K, Crystal | 286.2 ± 4.9
360 K, Crystal | 321.5 ± 5.2
360.92 K, Crystal | 323.9 ± 5.2
370 K, Liquid | 420.6 ± 6.2
372.89 K, Liquid | 422 ± 6.2
375 K, Liquid | 423.4 ± 6.2
376.72 K, Liquid | 424.4 ± 6.2
380 K, Liquid | 426.2 ± 6.3
380.91 K, Liquid | 427 ± 6.3
385 K, Liquid | 429 ± 6.3
385.11 K, Liquid | 428.8 ± 6.3
390 K, Liquid | 431.8 ± 6.3
